The source of these data is publication PMC12680861, “Comparative analysis of LJ-4378 and tirzepatide in mouse models of obesity and weight regain” (Archives of Pharmacal Research, 2025).

Data set [1] has as its system HFD-fed mice. Nature of the data set: Diet-induced obesity model: body weight, body composition, adipose weights, micro-CT. Type of data set: in vivo, C57BL/6 J male mice. The note with it: for fat mass reduction relative to HFD controls / reduction in total body weight compared to the HFD control group: LJ-4378 1 mg/kg/day I.P., TZP 10 nmol/kg/day S.C. As to the method:
Animal experiments were conducted in accordance with the guidelines approved by the Institutional Animal Care and Use Committees (IACUC) of Seoul National University (SNU-230113–5-2, SNU-250410–1, and SNU-250811–5). C57BL/6 J male mice and Sprague–Dawley (SD) male rats were raised in a controlled animal facility with a temperature of 22 ± 1 °C and subjected to a 12-h light/12-h dark cycle. Mice were randomly assigned to experimental groups and fed either a normal chow diet (NCD, protein: 24.52% calories, carbohydrates: 63.07% calories, fat: 12.41% calories, 38,057, Purina Lab, Seongnam, Republic of Korea) or a high-fat diet (HFD, protein: 20% kcal, carbohydrate: 20% kcal, fat: 60% kcal, New Brunswick, D12492, Research Diets, NJ, USA) for the specified durations, according to group assignment. Both diet and water were provided ad libitum. SD rats (230–240 g) were provided standard rat chow and had free access to water. Prior to the experiment, the rats underwent a 12-h fasting period.
To evaluate the anti-obesity effect in vivo, mice fed either NCD or HFD for 10 weeks were subsequently treated for up to 4 weeks. To control for injection route-related variables, all mice received both intraperitoneal (I.P.) and subcutaneous (S.C.) injections. The administration were as follows: LJ-4378 treated mice received LJ-4378, which was synthesized in our laboratory at > 95% purity (1 mg/kg/day, I.P.) (Hou et al. [2010]; Kim et al. [2022]) along with the vehicle for TZP (40 mM Tris–HCl, pH 8, S.C.); TZP treated mice received TZP (Samms et al. [2021]; Kim et al. [2022]) (LY3298176, MedChemExpress, Monmouth Junction, NJ, USA) (10 nmol/kg/day, S.C.) along with the vehicle for LJ-4378 (0.2% DMSO, I.P.); vehicle control mice received both vehicles (0.2% DMSO, I.P. and 40 mM Tris–HCl, pH 8, S.C.)
Body composition and micro-CT analysis were performed after the treatment with vehicle, LJ-4378, or TZP for the indicated duration in HFD-fed mice and WR mice.
A nuclear magnetic resonance (NMR) technology system with EchoMRI-700 (Echo Medical Systems, […]) was used to analyze body composition.
To assess the abdominal fat volume, we employed the Quantum GX2 micro-CT imaging system (PerkinElmer, Waltham, MA, USA). Mice were anesthetized with isoflurane and positioned on the micro-CT bed for imaging of the abdominal region, defined from the proximal end of the L1 vertebra to the distal end of the L5 vertebra. Imaging was performed at 90 kV/88 µA with a field of view of 72 mm, a pixel size of 90 µm, and a 2-min acquisition time at standard resolution. Visceral, subcutaneous, and total abdominal fat volumes were quantified using AnalyzeDirect software (ver. 12.0, Overland Park, KS, USA).

Data set [2] concerns plasma protein. Nature of the data set: Plasma protein binding, Rapid Equilibrium Dialysis (RED). Type of data set: in vitro ADME, human. The note with it: 10 μM, 37 °C, 4 h. As to the method:
(§1) The plasma protein binding of LJ-4378 was evaluated using the Rapid Equilibrium Dialysis (RED) method with 100% plasma from human (Biochemed, BC22089NCP), rat (Innovative, IRT-N), and mouse (Biochemed, 029-APSC-MP), all treated with sodium citrate as an anticoagulant. The RED device (ThermoFisher Scientific, #89809) and reusable base plate (ThermoFisher Scientific, #89811) were used with an 8 K MWCO membrane. Test compounds were added to plasma at a final concentration of 10 μM and dialyzed against phosphate-buffered saline (PBS, pH 7.4; Hyclone, #SH30256.01) at 37 °C for 4 h. After incubation, equal volumes of plasma and PBS samples were mixed with blank PBS and blank plasma, respectively, followed by the addition of acetonitrile containing chlorpropamide (TRC, C424800) as the internal standard. […] All measurements were performed in duplicate with a deviation of less than 15% between replicates. The free fraction (% Free) was calculated as (concentration in buffer chamber/concentration in plasma chamber) × 100, and the bound fraction (% Bound) was obtained by subtracting % Free from 100. In cases where measurements were unstable, deviations greater than 15% were allowed.
On the technique in general: In equilibrium dialysis free small molecules cross a membrane that holds back macromolecules.

The test system of data set [3] is plasma protein. The description is as above. Type of data set: in vitro ADME, rat. The note with it: 10 μM, 37 °C, 4 h. On the procedure:
as §1

Data set [4] has as its system plasma protein. The data set is described as above. The format is in vitro ADME, mouse. Particulars: 10 μM, 37 °C, 4 h. On the procedure:
as §1

A short description of data set [5]: Plasma stability assay. Particulars: 37 °C, 30 min. Type of data set: in vitro ADME, human. As to the method:
The plasma stability of LJ-4378 was evaluated using 100% plasma obtained from human (Biochemed, BC22089NCP, sodium citrate), rat (Innovative, IRT-N, sodium citrate), and mouse (Biochemed, 029-APSC-MP, sodium citrate). 10 Μm of LJ-4378 was added to the plasma, and samples were incubated at 37 °C for 0, 30, and 120 min. At each time point, an aliquot of the plasma was removed and mixed with acetonitrile containing the internal standard, chlorpropamide (TRC, C424800). […] The supernatant was injected into the LC–MS/MS system for quantification of the remaining compound. Analysis was performed using a Nexera XR system (Shimadzu, Japan) with a TSQ Vantage mass spectrometer (Thermo, USA). […] Data acquisition was conducted in MRM mode using Xcalibur software (version 4.4). All experiments were performed in duplicate with a deviation within 15%, and the percentage of compound remaining (% Remaining) at each time point was calculated relative to the non-incubated control sample. For quality control, procaine and enalapril (each at 10 μM) were used as reference compounds and were confirmed to fall within acceptable ranges.

A short description of data set [6]: Preliminary study, I.V. bolus administration to mice. Type of data set: in vivo.
Details of data set [7]: method as in Jastreboff et al. [2022]; Sattar et al. [2022]. The note with it: over 72 weeks; ref Jastreboff et al. [2022]; Sattar et al. [2022]; cited from earlier work.

With `CCCCC#Cc1nc(N)c2ncn([C@@H]3SC[C@@H](O)[C@H]3O)c2n1` [LJ-4378], in data set [1] (4 weeks of LJ-4378, HFD-fed mice), the “fat ratio (% of the total body weight)” value is reported as 20.1%. For the same molecule, in data set [1] (14 days), the “fat mass reduction relative to HFD controls” value is 30.7% and the “reduction in total body weight compared to the HFD control group” value came out at 9.04%. In data set [1] (HFD-fed mice, 14 days), the “iWAT and gWAT mass” value is reported as “significantly reduced”; the “visceral and subcutaneous abdominal fat (micro-CT)” value was “reduction”. In data set [1] (four weeks of LJ-4378 administration, HFD-fed mice), the “reduction in body weight” value was determined as 15.5%. In addition, the “Plasma free fraction (% Free), Human” value in data set [2] stood at 30.1%. Also, in data set [3], the “Plasma free fraction (% Free), Rat” value is 29.7%. Also, the “Plasma free fraction (% Free), Mouse” value in data set [4] came out at 12.7%. The “% Remaining compound, Human plasma 30 min” value in data set [5] is 97.0%. The terminal phase half-life result in data set [6] was “approximately 0.29 h”.

Take Tirzepatide [TZP, reference compound]: the “fat ratio (% of the total body weight)” value in data set [1] (2 weeks of TZP treatment, HFD-fed mice) worked out at 27.4%. In data set [1] (14 days), the “fat mass reduction relative to HFD controls” value came to 32.4% and the “reduction in total body weight compared to the HFD control group” value was determined as 18.63%. Moreover, in data set [1] (HFD-fed mice, 14 days), the “brown adipose tissue (BAT) mass” value is “reduced”; the “iWAT and gWAT mass” value is reported as “significantly reduced”; the “visceral and subcutaneous abdominal fat (micro-CT)” value is “reduction”. Also, the “weight reductions in clinical studies” value in data set [7] is recorded as “up to 22.5%”.
